Experimental data reported in patent US20100222285A1, “METHOD OF CONTROLLING THE PROLIFERATION OF VASCULAR ENDOTHELIAL CELLS AND INHIBITING LUMEN FORMATION” (Rare Sugar Production Technical Research Laboratories, LLC, priority 2004, published 2010).
“Also recorded” adds a separate entry of the source.

Columns and labels:
[1] = system: Human umbilical cord vascular endothelial cells (HUVEC); test: Experiment of growth: HUVEC cell number by WST-8 after 48 hrs; assay type: cell-based; conditions: for antagonism of the growth inhibitory effect by D-glucose: co-existence of 20 mM D-glucose; for inhibition at 20000 µM: 20 mM, read-out: inhibition of growth to the control group
Description: Human umbilical cord vascular endothelial cells (HUVEC) were purchased as primary cultured cells from KURABO (Kurabo Co., Osaka, Japan) and the cells up to P8 were used in experiments. The cells were inoculated on a 96-well plate at a rate of 3000 cells/well, and allowed to stand in Humedia EG2 (Kurabo) overnight (37° C., 5% CO2). Next morning, the medium was replaced by 90 μl of 2% FBS-containing Humedia EB2 (Kurabo), to which was then added 10 μl of additive, and after a lapse of 48 hrs the number of cells was counted. No medium was exchanged during this period. In counting, a tetrazolium salt WST-8 was added to each well (0.5 mM), and after 2 hrs the absorbance was measured at 450 nm. The tetrazolium salt added was reduced with an intracellular dehydrogenase to yield formazan depending on the number of cells in the well. In advance, the absorbance at 450 nm was confirmed to show a linearity within the range of 500 to 12000 cells in the well.

[2] = system: human endothelial cells and fibroblasts; test: Experiment of luminal formation: concurrent culture, CD31 staining, area of the lumen; assay type: cell-based; conditions: for effect on the luminal formation: Example 1, 0.1-20 mM; for effect on the luminal formation of HUVEC: Example 2 (36 species), incubation for 10 days; for antagonism of the luminal formation inhibitory effect by D-glucose: co-existence of 20 mM D-glucose; for inhibition of the acceleration of luminal formation by VEGF: with VEGF
Description: Using a concurrent culture system of human endothelial cells and fibroblasts planted on a 24-well plate (Kurabo Co., Osaka, Japan), the culture medium was replaced by culture media containing a variety of additives at the early stage of luminal formation. Every 3 days, the medium was exchanged with the additive; 10 day after incubation, the endothelial cell only was stained by using mouse anti-human CD31 antibody (Kurabo Co., Osaka, Japan), goat anti-mouse IgG AlkP Conjugate (Kurabo Co., Osaka, Japan), and BCPI (5-bromo-4-chloro-3-indolyl phosphate) (Kurabo Co., Osaka, Japan) to photograph. The visualized area of the lumen was measured by means of NIH image software.

HUVEC = test: 14C-glucose up-take in vascular endothelial cell; assay type: cell-based, human; conditions: sugars 20 mM (2 mM for 2DG), 48 hours; for effect on the glucose up-take of HUVEC: both culture media ([GLU]=0.1 mM and 4.5 mM), VEGF 10 ng/mL; for effect on the glucose up-take accelerated by VEGF: with VEGF 10 ng/mL
Description: Most of the physiological actions of monosaccharides are likely to be caused by the structural similarity to D-glucose, and one of the mechanisms is considered to be an influence on glucose metabolism. Then, in order to elucidate the influence on metabolism, the effect of HUVEC on the glucose up-take was examined for FRU, ALO, PSI, ALL, 2DG, MAN, and GAL. ^14C-Glucose was added to a culture medium, and the incorporated amount after 48 hours was counted by a scintillation counter. HUVEC was inoculated on a 24-well plate at a rate of 12000 cells/well. The medium was allowed to stand in 400 μL of Humedia EB2+2% FBS overnight. Next day, the medium was replaced by a medium containing ^14C-glucose. The medium used in replacement was the total 400 μL/well of medium containing ^14C-glucose (360 μL)+saline/VEGF (20 μL)+saline/RS (20 μL). The stock solution of ^14C-glucose 100 Bq/μL saline was diluted 10-fold with 2% FBS-containing medium (glucose-free or low glucose) to give a culture medium of 10 Bq/μL. The experiment was carried out on a lower glucose medium (final concentration [GLU]=0.1 mM) and on a high glucose medium ([GLU]=4.5 mM). ^14C-glucose was added at 3600 Bq/well. Further, FRU: D-fructose, ALO: D-allose, PSI: D-psicose, ALL: allitol, 2DG: 2-deoxy glucose, MAN: D-mannose, or GAL: D-galactose was added to the medium as an additive at 20 mM (provided 2 mM for 2DC). Irritation for growth was also carried out with VEGF (10 ng/mL). After a lapse of 48 hours, the well was washed twice with PBS, to which was then added 200 μL of 2% Triton, of which 180 μL was used as a sample for scintillation counter. The incorporation of ^14C-glucose into the HUVEC cells was calculated from the count in each well in the unit of nmol/well and depicted in a graph.

[3] = Basic safety tests (mutagenicity, biodegradable test, 3 acute toxicity tests); conditions: oral acute toxicity, skin and ophthalmic primary irritation, by a designated organ
Description: The most important and highest hurdle in the development of approved drugs/quasi drugs or foods is to confirm safety of the rare sugar as a new substance. As the most basic safety tests, mutagenicity, biodegradable test and 3 acute toxicity tests (oral acute toxicity test, skin primary irritation test, ophthalmic primary irritation test) are decided. Since rare sugars are monosaccharides naturally occurring in very small quantities, it is necessary to examine exactly, though they are expected to be safe. We requested of a designated organ to examine the basic safety test on 3 species of rare sugars, i.e., D-psicose, D-allose and allitol. As a result, it was confirmed that there was no problem in any of the rare sugars.

[4] = Example 2 (36 species), 48 hours

Row | Molecule | effect on the glucose up-take of HUVEC (HUVEC) | result of the basic safety test [3] | effect on the growth of HUVEC [1, 4] | effect on the growth of HUVEC ([1]; Example 1, 0.1-20 mM, 48 hrs) | antagonism of the growth inhibitory effect by D-glucose [1] | effect on the luminal formation ([2]; 10 days) | effect on the luminal formation of HUVEC [2] | antagonism of the luminal formation inhibitory effect by D-glucose [2] | inhibition of the acceleration of luminal formation by VEGF [2] | effect on the glucose up-take accelerated by VEGF (HUVEC) | inhibition at 20000 µM ([1]; Homo sapiens, HUVEC, 48 hrs) [%] | other results
1 | VEGF | accelerated | – | – | – | – | – | – | – | – | – | – | cell number in comparison with the control group ([1]; 10 ng/mL, 48 hrs): 1.7±0.5 times; luminal area in comparison to the control group ([2]; 10 ng/mL, 10 days): 2.8±0.6 times
2 | OC[C@@H](O)[C@@H](O)[C@@H](O)[C@@H](O)CO [allitol] | – | no problem | – | – | – | – | – | – | – | – | – | –
3 | O=C(CO)[C@H](O)[C@H](O)[C@H](O)CO [PSI, D-psicose] | – | no problem | no remarkable effect | – | – | – | – | – | – | – | – | –
4 | O=CC[C@@H](O)[C@H](O)[C@H](O)CO [2DG, 2-deoxy-D-glucose] | inhibitory effect | – | inhibitory effect was observed; also recorded: particularly strong action | effect was confirmed | no antagonism | effect was confirmed | inhibitory effect was observed; also recorded: much stronger action | antagonized | inhibit the acceleration by VEGF | inhibited | – | effect on the growth of HUVEC ([1]; Example 1, 0.1-20 mM, 48 hrs, listed as 2-deoxy-D-glucose): inhibit both; inhibition at 1000 µM ([1]; Homo sapiens, HUVEC, 1 mM, 48 hrs): 70%; effect on the luminal formation ([2]; 10 days, listed as 2-deoxy-D-glucose): inhibit both; inhibition at 100 µM ([2]; Homo sapiens, 0.1 mM): 70%; inhibition at 500 µM ([2]; Homo sapiens, 0.5 mM): 95%
5 | O=C[C@H](O)[C@H](O)[C@H](O)[C@H](O)CO [A, D-allose] | inhibitory effect | no problem | inhibitory effect was observed | effect was confirmed | antagonized | effect was confirmed | inhibitory effect was observed | no apparent effect | inhibit the acceleration by VEGF | inhibited | 40 to 80 | inhibition at 20000 µM ([2]; Homo sapiens, 20 mM): 50 to 80%
6 | O=C[C@@H](O)[C@@H](O)[C@H](O)[C@H](O)CO [MAN, D-mannose] | inhibitory effect | – | inhibitory effect was observed | effect was confirmed; also recorded: inhibitory effect for growth | antagonized | no influence | – | – | – | inhibited | 40 to 80 | –
